Assay results taken from ChEMBL document CHEMBL1201862, “PubChem BioAssay data set” (2004).
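1) Cells in 96-well plates. 2) Compound, 48 h, 5 concentrations. 3) Linear interpolation between surrounding doses. 4) Unreached endpoint = highest concentration. At the GI50, growth is halved.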 Calls of active or inactive are those of the source. No stated cut-off is given here; in the data, active = GI50 up to about 1.1 µM and inactive = higher.

Legend:
Assay in all cases: NCI anticancer screen, dose series, 48 h
786-0 = tested on: 786-0
A498 = tested on: A498
A549 = tested on: A549
ACHN = tested on: ACHN
BT-549 = tested on: BT-549
CAKI-1 = tested on: CAKI-1
CCRF-CEM = tested on: CCRF-CEM
COLO 205 = tested on: COLO 205
DU-145 = tested on: DU-145
EKVX = tested on: EKVX
HCC 2998 = tested on: HCC 2998
HCT-116 = tested on: HCT-116
HCT-15 = tested on: HCT-15
HL-60 = tested on: HL-60
HOP-62 = tested on: HOP-62
HOP-92 = tested on: HOP-92
HT-29 = tested on: HT-29
Hs-578T = tested on: Hs-578T
IGROV-1 = tested on: IGROV-1
K562 = tested on: K562
KM12 = tested on: KM12
LOX IMVI = tested on: LOX IMVI
M14 = tested on: M14
MCF7 = tested on: MCF7
MDA-MB-231 = tested on: MDA-MB-231
MDA-MB-435 = tested on: MDA-MB-435
MDA-N = tested on: MDA-N
MOLT-4 = tested on: MOLT-4
Malme-3M = tested on: Malme-3M
NCI-H226 = tested on: NCI-H226
NCI-H23 = tested on: NCI-H23
NCI-H460 = tested on: NCI-H460
NCI-H522 = tested on: NCI-H522
NCI/ADR-RES = tested on: NCI/ADR-RES
OVCAR-3 = tested on: OVCAR-3
OVCAR-4 = tested on: OVCAR-4
OVCAR-5 = tested on: OVCAR-5
OVCAR-8 = tested on: OVCAR-8
PC-3 = tested on: PC-3
RPMI-8226 = tested on: RPMI-8226
RXF 393 = tested on: RXF 393
SF-268 = tested on: SF-268
SF-295 = tested on: SF-295
SK-MEL-28 = tested on: SK-MEL-28
SK-MEL-2 = tested on: SK-MEL-2
SK-MEL-5 = tested on: SK-MEL-5
SK-OV-3 = tested on: SK-OV-3
SN12C = tested on: SN12C
SNB-19 = tested on: SNB-19
SNB-75 = tested on: SNB-75
SR = tested on: SR
SW-620 = tested on: SW-620
T47D = tested on: T47D
TK-10 = tested on: TK-10
U-251 = tested on: U-251
UACC-257 = tested on: UACC-257
UACC-62 = tested on: UACC-62
UO-31 = tested on: UO-31
SF-539 = tested on: SF-539

For O=C1C=CC(=O)C(N(CCO)CCO)=C1.O=C1C=CC2(O)OCCN(CCO)C2=C1, the GI50 (786-0) was > 100 µM (inactive), the GI50 (A498) was > 100 µM (inactive) and the GI50 (A549) was > 100 µM (inactive). For the same compound, the GI50 (ACHN) was > 100 µM (inactive), the GI50 (BT-549) was > 100 µM (inactive) and the GI50 (CAKI-1) was > 100 µM (inactive). For the same compound, the GI50 (CCRF-CEM) was > 100 µM (inactive), the GI50 (COLO 205) was > 100 µM (inactive) and the GI50 (DU-145) was > 100 µM (inactive). For the same compound, the GI50 (EKVX) was > 100 µM (inactive), the GI50 (HCC 2998) was > 100 µM (inactive) and the GI50 (HCT-116) was > 100 µM (inactive). For the same compound, the GI50 (HCT-15) was > 100 µM, the GI50 (HL-60) was > 100 µM (inactive) and the GI50 (HOP-62) was > 100 µM (inactive). The GI50 (HOP-92) was > 100 µM (inactive), the GI50 (HT-29) was > 100 µM (inactive) and the GI50 (Hs-578T) was > 100 µM (inactive). For the same compound, the GI50 (IGROV-1) was > 100 µM (inactive), the GI50 (K562) was > 100 µM (inactive) and the GI50 (KM12) was > 100 µM (inactive). The GI50 (LOX IMVI) was > 100 µM (inactive), the GI50 (M14) was > 100 µM (inactive) and the GI50 (MCF7) was > 100 µM (inactive). For the same compound, the GI50 (MDA-MB-231) was > 100 µM (inactive), the GI50 (MDA-MB-435) was > 100 µM (inactive) and the GI50 (MDA-N) was > 100 µM (inactive). For the same compound, the GI50 (MOLT-4) was > 100 µM (inactive), the GI50 (Malme-3M) was > 100 µM (inactive) and the GI50 (NCI-H226) was > 100 µM (inactive). The GI50 (NCI-H23) was > 100 µM (inactive), the GI50 (NCI-H460) was > 100 µM (inactive) and the GI50 (NCI-H522) was > 100 µM (inactive). For the same compound, the GI50 (NCI/ADR-RES) was > 100 µM (inactive), the GI50 (OVCAR-3) was > 100 µM (inactive) and the GI50 (OVCAR-4) was > 100 µM (inactive). The GI50 (OVCAR-5) was > 100 µM (inactive), the GI50 (OVCAR-8) was > 100 µM (inactive) and the GI50 (PC-3) was > 100 µM (inactive). For the same compound, the GI50 (RPMI-8226) was 91.6 µM (inactive), the GI50 (RXF 393) was > 100 µM (inactive) and the GI50 (SF-268) was > 100 µM (inactive). For the same compound, the GI50 (SF-295) was > 100 µM (inactive), the GI50 (SK-MEL-28) was > 100 µM (inactive) and the GI50 (SK-MEL-2) was > 100 µM (inactive). The GI50 (SK-MEL-5) was > 100 µM (inactive), the GI50 (SK-OV-3) was > 100 µM (inactive) and the GI50 (SN12C) was > 100 µM (inactive). For the same compound, the GI50 (SNB-19) was > 100 µM (inactive), the GI50 (SNB-75) was > 100 µM (inactive) and the GI50 (SR) was 34.8 µM (inactive). The GI50 (SW-620) was > 100 µM (inactive), the GI50 (T47D) was > 100 µM (inactive) and the GI50 (TK-10) was > 100 µM (inactive). The GI50 (U-251) was > 100 µM (inactive), the GI50 (UACC-257) was > 100 µM (inactive) and the GI50 (UACC-62) was > 100 µM (inactive). For the same compound, the GI50 (UO-31) was > 100 µM (inactive).
With COc1ccc2c(C)cc(N/N=C(\C)C=O)nc2c1 the GI50 (786-0) was 11.6 µM (inactive), the GI50 (A498) was 14.5 µM (inactive) and the GI50 (A549) was 18.5 µM (inactive). The GI50 (ACHN) was 15.6 µM (inactive), the GI50 (BT-549) was 15.1 µM (inactive) and the GI50 (CAKI-1) was 14.4 µM (inactive). The GI50 (CCRF-CEM) was 1.82 µM (inactive), the GI50 (COLO 205) was 13.8 µM (inactive) and the GI50 (DU-145) was 11.7 µM (inactive). The GI50 (EKVX) was 16.6 µM (inactive), the GI50 (HCC 2998) was 11.9 µM (inactive) and the GI50 (HCT-116) was 11 µM (inactive). The GI50 (HCT-15) was 3.78 µM, the GI50 (HOP-62) was 8.79 µM (inactive) and the GI50 (HOP-92) was 10.5 µM (inactive). The GI50 (HT-29) was 12.2 µM (inactive), the GI50 (Hs-578T) was 15.5 µM (inactive) and the GI50 (IGROV-1) was 16.5 µM (inactive). For the same compound, the GI50 (K562) was 2.47 µM (inactive), the GI50 (KM12) was 12.3 µM (inactive) and the GI50 (LOX IMVI) was 10.2 µM (inactive). The GI50 (M14) was 13.6 µM (inactive), the GI50 (MCF7) was 8.79 µM (inactive) and the GI50 (MDA-MB-231) was 9.33 µM (inactive). The GI50 (MDA-MB-435) was 10.8 µM (inactive), the GI50 (MDA-N) was 10.8 µM (inactive) and the GI50 (MOLT-4) was 4.51 µM (inactive). For the same compound, the GI50 (Malme-3M) was 12 µM (inactive), the GI50 (NCI-H226) was 10.5 µM (inactive) and the GI50 (NCI-H23) was 11.8 µM (inactive). For the same compound, the GI50 (NCI-H460) was 8.99 µM (inactive), the GI50 (NCI-H522) was 12.6 µM (inactive) and the GI50 (NCI/ADR-RES) was 11.7 µM (inactive). The GI50 (OVCAR-3) was 2.25 µM (inactive), the GI50 (OVCAR-4) was 11.2 µM (inactive) and the GI50 (OVCAR-5) was 13 µM (inactive). For the same compound, the GI50 (OVCAR-8) was 11.5 µM (inactive), the GI50 (PC-3) was 9.2 µM (inactive) and the GI50 (RPMI-8226) was 6.31 µM (inactive). For the same compound, the GI50 (RXF 393) was 10.6 µM (inactive), the GI50 (SF-268) was 13.8 µM (inactive) and the GI50 (SF-295) was 10 µM (inactive). For the same compound, the GI50 (SF-539) was 6.25 µM (inactive), the GI50 (SK-MEL-28) was 13.7 µM (inactive) and the GI50 (SK-MEL-2) was 13.4 µM (inactive). The GI50 (SK-MEL-5) was 12.7 µM (inactive), the GI50 (SK-OV-3) was 11.2 µM (inactive) and the GI50 (SN12C) was 11.2 µM (inactive). For the same compound, the GI50 (SNB-19) was 13 µM (inactive), the GI50 (SNB-75) was 13.6 µM (inactive) and the GI50 (SR) was 1.64 µM (inactive). The GI50 (SW-620) was 7.57 µM (inactive), the GI50 (T47D) was 15.5 µM (inactive) and the GI50 (TK-10) was 15.7 µM (inactive). The GI50 (U-251) was 11.4 µM (inactive), the GI50 (UACC-257) was 15.8 µM (inactive) and the GI50 (UACC-62) was 12.6 µM (inactive). The GI50 (UO-31) was 13.2 µM (inactive).
